Consider ten compounds from ChEMBL document CHEMBL4325881, “Facile synthesis of 2-aryl 5-hydroxy benzo[d]oxazoles and their in vitro anti-proliferative effects on various cancer cell lines” (Bioorg Med Chem Lett, 2018).

For one experiment, the system named is A549. The experiment is described as follows: Cytotoxicity against human A549 cells assessed as reduction in cell viability after 48 hrs by MTT assay. It is filed as functional, cell-based. Conditions: A549, 48 h.
Experiment [1] is described as follows: Cytotoxicity against human […] cells assessed as reduction in cell viability after 48 hrs by MTT assay. The class given is functional, cell-based.
A further experiment deals with HaCaT. Put plainly: Cytotoxicity against human HaCaT cells assessed as reduction in cell viability after 48 hrs by MTT assay. The class given is cell-based.
Another experiment concerns HeLa. The experiment is described as follows: Cytotoxicity against human HeLa cells assessed as reduction in cell viability after 48 hrs by MTT assay. The class given is functional, cell-based.
The subject of another experiment is HepG2. Put plainly: Cytotoxicity against human HepG2 cells assessed as reduction in cell viability after 48 hrs by MTT assay. It is filed as functional, cell-based. The following applies: HepG2, 48 h.
A further experiment has as its system MDA-MB-231. Put plainly: Cytotoxicity against human MDA-MB-231 cells assessed as reduction in cell viability after 48 hrs by MTT assay. It is filed as functional, cell-based. The following applies: MDA-MB-231, 48 h.

Where only a bound is given, the exact number is not on record here.

For the compound `COc1cccc2c1C(=O)c1c(O)c3c(c(O)c1C2=O)C[C@@](O)(C(=O)CO)C[C@@H]3O[C@H]1C[C@H](N)[C@H](O)[C@H](C)O1` [DOXORUBICIN], the IC50 in the experiment with A549 was 0.34 µM; in experiment [1], 1.57 µM; in the experiment with HaCaT it was 0.52 µM; in the experiment with HeLa, 0.11 µM; in the experiment on HepG2, 0.52 µM.
In the case of `Cc1ccccc1-c1nc2c(C=O)c(O)ccc2o1`, the half-maximal inhibitory concentration (IC50) worked out at 2.21 µM with A549; 5.36 µM with MDA-MB-231; 9.73 µM in experiment [1]; 12.2 µM in the experiment on HaCaT; 15.4 µM in the experiment with HeLa; 4.74 µM in the experiment with HepG2.
For the compound `CC(=O)c1c(O)ccc2oc(-c3ccccc3C)nc12`, the half-inhibitory concentration (IC50) was determined as 20.1 µM with A549; 30.1 µM in the experiment on MDA-MB-231; 17.5 µM in experiment [1]; 8.94 µM in the experiment with HaCaT; 19.2 µM in the experiment with HeLa; 11.7 µM in the experiment on HepG2.
Turning to `O=Cc1c(O)ccc2oc(-c3ccccc3[N+](=O)[O-])nc12`, the IC50 in the experiment with A549 was 7.03 µM; with MDA-MB-231, 9.18 µM; in experiment [1], 18.4 µM; with HaCaT, 20 µM; with HeLa it was 14.5 µM; in the experiment with HepG2, 17.4 µM.
As for `CC(=O)c1c(O)ccc2oc(-c3ccccc3)nc12`, the IC50 (in the experiment on A549; with MDA-MB-231; in experiment [1]; in the experiment with HaCaT; in the experiment with HeLa; in the experiment with HepG2) was over 30 µM throughout.
On to `O=Cc1c(O)ccc2oc(-c3cccc4ccccc34)nc12`, for which the IC50 in the experiment on A549 stood at 28.4 µM; in the experiment on MDA-MB-231 it was 31.2 µM; in experiment [1], 21.2 µM; in the experiment with HaCaT, 10.7 µM; with HeLa it was 30.1 µM; in the experiment with HepG2 it was 27.7 µM.
For `O=Cc1c(O)ccc2oc(-c3ccccc3Cl)nc12`, the half-inhibitory concentration (IC50) was 7.68 µM in the experiment with A549; 5.66 µM with MDA-MB-231; 14 µM in experiment [1]; 12.1 µM in the experiment with HaCaT; 14.1 µM with HeLa; 10.5 µM in the experiment on HepG2.
Take `COc1cc(OC)cc(-c2nc3c(C=O)c(O)ccc3o2)c1`: the IC50 in the experiment with A549 is 30.3 µM; in the experiment on MDA-MB-231 it was 34.1 µM; in experiment [1] it was 30.5 µM; in the experiment with HaCaT, 17.6 µM; with HeLa it was 25.3 µM; in the experiment with HepG2, 21.4 µM.
On to `O=Cc1c(O)ccc2oc(-c3ccco3)nc12`, for which the IC50 (in the experiment on A549; with MDA-MB-231; in experiment [1]; in the experiment on HaCaT; with HeLa; with HepG2) was over 30 µM throughout.
For `COc1ccccc1-c1nc2c(C=O)c(O)ccc2o1`, the IC50 stood at 2.8 µM with A549; 5.95 µM in the experiment on MDA-MB-231; 10.4 µM in experiment [1]; 8.38 µM in the experiment with HaCaT; 8.08 µM in the experiment on HeLa; 10.8 µM in the experiment on HepG2.
